Assay results from PMC3124361 (Journal of medicinal chemistry, 2011).
In brackets after ≈: the same amount, converted by molar mass. Like-named read-outs stand apart in the source and are kept apart here.

Legend:
[1] = molecular target: hDHODH (Homo sapiens, UniProt Q02127); conditions: read-out: IC50 hDHODH; reported previously; ref [13], [15]; cited from earlier work
[2] = Non-equilibrium solubility by nephelometry, pH 6.5; assay type: physicochemical; conditions: for solubility: phosphate buffer
[3] = molecular target: human albumin (Homo sapiens, UniProt P02768); experiment: Protein binding estimated on human albumin column; assay type: in vitro ADME; conditions: human albumin chromatographic method
Sequence of human albumin (P02768 25-609): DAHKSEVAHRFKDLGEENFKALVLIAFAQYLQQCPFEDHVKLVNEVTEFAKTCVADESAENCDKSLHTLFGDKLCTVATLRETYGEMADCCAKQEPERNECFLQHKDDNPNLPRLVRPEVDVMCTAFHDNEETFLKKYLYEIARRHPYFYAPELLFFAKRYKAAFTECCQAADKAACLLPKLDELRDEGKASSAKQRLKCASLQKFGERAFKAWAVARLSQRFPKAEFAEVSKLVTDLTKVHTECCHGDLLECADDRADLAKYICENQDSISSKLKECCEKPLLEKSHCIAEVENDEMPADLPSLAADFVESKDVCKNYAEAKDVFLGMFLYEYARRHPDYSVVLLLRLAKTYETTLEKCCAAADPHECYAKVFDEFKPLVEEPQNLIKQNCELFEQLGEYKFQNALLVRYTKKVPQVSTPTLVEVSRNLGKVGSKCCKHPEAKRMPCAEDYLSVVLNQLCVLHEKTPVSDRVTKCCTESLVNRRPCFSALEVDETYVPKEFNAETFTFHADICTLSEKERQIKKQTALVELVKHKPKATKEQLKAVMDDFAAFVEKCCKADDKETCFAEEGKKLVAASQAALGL

[4] = ref [13], [15], cited from earlier work; for Eh Human: predicted hepatic extraction ratio
[5] = system: P. falciparum 3D7 cells; conditions: cited from earlier work
[6] = ref [13], [15], cited from earlier work
[7] = system: P. berghei NK65 ANKA strain; conditions: cited from earlier work
[8] = In vitro metabolism in mouse liver microsomes; assay type: in vitro ADME; conditions: for Eh Mouse: predicted hepatic extraction ratio
[9] = In vitro metabolism in human liver microsomes; assay type: in vitro ADME; conditions: for microsomal CLint at 1 μM: microsomes, pH 7.4; for Eh Human: predicted hepatic extraction ratio
[10] = system: rat plasma proteins; experiment: Protein binding in rat plasma by ultracentrifugation; assay type: in vitro ADME; conditions: 37°C
[11] = system: P. berghei NK65 ANKA strain; experiment: Peter's test, P. berghei efficacy in mice; assay type: in vivo, Plasmodium berghei; conditions: for ED50: Plasmodium berghei, in Mus musculus, po, read-out: ED50 95% confidence interval; for adverse reactions attributed to drug: any of the dose levels, efficacy study in mice
[12] = Rat pharmacokinetics after IV and oral administration; assay type: in vivo; conditions: for adverse reactions following IV or oral administration: either dose route; for clearance: male, Sprague Dawley, in vivo, iv
[13] = system: P. falciparum 3D7 cells; experiment: P. falciparum whole cell assay; assay type: cell-based, Plasmodium falciparum
[14] = molecular target: T1, PfDHODH (Plasmodium falciparum, UniProt Q08210); experiment: PfDHODH DCIP dye-based enzyme assay; assay type: biochemical; conditions: for IC50: IC50 PfDHODH
T1 sequence (Q08210 158-569 limits assumed): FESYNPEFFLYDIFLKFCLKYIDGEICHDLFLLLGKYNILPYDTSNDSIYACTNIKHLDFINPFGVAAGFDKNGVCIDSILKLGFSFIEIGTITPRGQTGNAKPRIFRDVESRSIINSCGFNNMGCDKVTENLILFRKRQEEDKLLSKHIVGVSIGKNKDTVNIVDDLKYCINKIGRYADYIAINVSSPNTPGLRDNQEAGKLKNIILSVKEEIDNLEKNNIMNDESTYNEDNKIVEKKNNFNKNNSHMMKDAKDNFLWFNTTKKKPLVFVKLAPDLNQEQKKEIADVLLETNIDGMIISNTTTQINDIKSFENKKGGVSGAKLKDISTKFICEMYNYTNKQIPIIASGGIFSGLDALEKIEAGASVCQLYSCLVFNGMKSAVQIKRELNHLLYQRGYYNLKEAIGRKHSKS

[15] = Mouse systemic exposure after single oral dose; assay type: in vivo; conditions: single oral dose 20 mg/kg, plasma

Sequence of hDHODH (Q02127 31-395 limits assumed): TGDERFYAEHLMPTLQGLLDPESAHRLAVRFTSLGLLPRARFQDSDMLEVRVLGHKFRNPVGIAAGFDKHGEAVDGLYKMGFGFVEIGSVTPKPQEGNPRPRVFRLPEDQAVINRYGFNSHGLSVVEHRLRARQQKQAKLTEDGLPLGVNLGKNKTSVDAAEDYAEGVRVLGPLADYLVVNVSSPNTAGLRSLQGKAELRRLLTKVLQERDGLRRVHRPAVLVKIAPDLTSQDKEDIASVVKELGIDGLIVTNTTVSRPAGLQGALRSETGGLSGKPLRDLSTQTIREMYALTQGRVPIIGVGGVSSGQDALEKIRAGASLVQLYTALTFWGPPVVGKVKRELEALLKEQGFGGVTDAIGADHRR

SMILES	solubility [2]	Human Plasma Binding [3]	Eh Human [4]	Eh Mouse [8]	microsomal CLint at 1 μM [9]	Eh Human [9]	binding to rat plasma proteins [10]	parasite clearance (in words) ([11]; 50 mg/kg BID)	parasite clearance (in words) ([11]; 100 mg/kg QD)	ED50 [11]	adverse reactions attributed to drug [11]	adverse reactions following IV or oral administration [12]	IC50 [14]	Time above 1 μM ([15]; 20 mg/kg)	other results
Cc1cc(Nc2ccc3ccccc3c2)n2ncnc2n1 [Compound 1, (5-methyl-[1,2,4]triazolo[1,5-a]pyrimidin-7-yl)-naphthalen-2-yl-amine]	45 to 90 µM (≈ 12.4 to 24.8 µg/mL)	93.8%	0.84												IC50 [1]: > 200000 nM; EC50 ([5]; read-out: EC50 Pf 3D7 cells, serum media, reported previously, ref [13], [15]): 76 nM; IC50 ([5]; read-out: IC50 against the parasite, initial lead, ref [15]): 50 to 100 nM; CLint Mouse ([6]; mouse liver microsomes, reported previously): 229 μL/min/mg protein; Eh Mouse ([6]; predicted hepatic extraction ratio, mouse): 0.91
Cc1cc(Nc2ccc(C(F)(F)F)cc2)n2ncnc2n1 [Compound 2, (5-methyl-[1,2,4]triazolo[1,5-a]pyrimidin-7-yl)-(4-trifluoromethyl-phenyl)-amine]	21 to 43 µM (≈ 6.16 to 12.6 µg/mL)	86.9%	0.29/ND ^a												CLint Human ([4]; human liver microsomes, reported previously): 8/ND ^a μL/min/mg protein; suppression of parasitemia ([7]; 50 mg/kg BID, 24 h after the last dose, ref [15]): 90%
Cc1cc(Nc2ccc(S(F)(F)(F)(F)F)cc2)n2ncnc2n1 [Compound 21, N-(4-Pentafluorosulfenylphenyl)-5-methyl-[1,2,4]triazolo[1,5-a]pyrimidin-7-amine]	71 to 142 µM (≈ 24.9 to 49.9 µg/mL)	95.4%		<0.2/<0.2	< 6 µL/min/mg	<0.2/<0.2	95.2%	none of the mice were parasite free on any day	none of the mice were parasite free on any day	10 to 29 mg/kg	No adverse reactions	No adverse reactions	< 300 nM	18 h	clearance ([12]; 5.1 mg/kg): 1.2 mL/min/kg; fold EC50 above the levels for the comparator anti-malarial drugs [13]: 10-200 fold; fold better activity (lower IC50) against PfDHODH than 2 ([14]; comparator 2): 2-3 fold
Cc1cc(Nc2cc(F)c(C(F)(F)F)c(F)c2)n2ncnc2n1 [Compound 32, N-(3,5-difluoro-4-(trifluoromethyl)phenyl)-5-methyl-[1,2,4]triazolo[1,5-a]pyrimidin-7-amine]	9 to 18 µM (≈ 2.96 to 5.93 µg/mL)	96.6%		<0.2/<0.2	< 6 µL/min/mg	<0.2/<0.2	97.3%	parasite free on day 5	parasite free on day 5	7.6 to 13 mg/kg	No adverse reactions	No adverse reactions	< 300 nM	19 h	aqueous solubility at pH 6.5 (in words) [2]: poorly soluble; mice remaining parasite free through day 7 ([11]; 100 mg/kg BID, parasites reemerged on day 9): 4/5; clearance ([12]; 0.9 mg/kg): 2.3 mL/min/kg; clearance ([12]; 2.9 mg/kg): 1.5 mL/min/kg
Cc1cc(Nc2ccc3sccc3c2)n2ncnc2n1 [Compound 36, N-(Benzo[b]thiophen-5yl)-5-methyl-[1,2,4]triazolo[1,5-a]pyrimidin-7-amine]	22 to 44 µM (≈ 6.19 to 12.4 µg/mL)	89.8%			> 30 µL/min/mg										microsomal CLint at 1 μM ([8]; microsomes, pH 7.4): > 30 µL/min/mg; IC50 ([14]; stated in text): < 100 nM; Time above 1 μM [15]: <1 h
CCN(CC)CCCC(C)Nc1ccnc2cc(Cl)ccc12 (centres unmarked) [chloroquine, reference compound]															ED50 in this model ([7]; previous reports, ref [20]): ~2 mg/kg
